The target of series [1] is T1, recombinant avian cytosolic HMG-CoA synthase (wild type, alanine replacing proline at residue 2; SEQ ID NO:2) expressed in E. coli (Gallus gallus, UniProt P23228, P2A).
T1 construct: Isolation of full length cDNA encoding avian HMG-CoA synthase from a λgt11 library has been reported; made in house; host or cells: E. coli BL21(DE3), plasmid pACS (pET-3d)
T1 sequence (P23228 2-522 P2A limits assumed): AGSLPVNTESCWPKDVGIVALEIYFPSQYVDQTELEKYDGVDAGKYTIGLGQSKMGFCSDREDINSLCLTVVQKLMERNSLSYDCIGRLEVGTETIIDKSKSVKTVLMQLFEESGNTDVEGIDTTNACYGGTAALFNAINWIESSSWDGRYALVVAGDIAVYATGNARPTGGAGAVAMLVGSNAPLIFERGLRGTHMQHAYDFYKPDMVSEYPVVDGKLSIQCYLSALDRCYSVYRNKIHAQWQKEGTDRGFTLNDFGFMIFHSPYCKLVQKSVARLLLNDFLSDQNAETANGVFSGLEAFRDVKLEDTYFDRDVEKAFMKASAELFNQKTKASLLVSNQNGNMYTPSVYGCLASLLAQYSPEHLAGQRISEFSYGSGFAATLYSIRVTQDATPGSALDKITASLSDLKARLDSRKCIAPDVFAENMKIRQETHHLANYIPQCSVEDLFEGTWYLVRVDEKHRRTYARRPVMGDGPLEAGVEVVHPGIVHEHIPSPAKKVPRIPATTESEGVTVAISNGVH
As to the kind of experiment: R.CoA binding by EPR (Scatchard plot). The following applies: 50 mM sodium phosphate pH 7.0, ambient temperature. Further details: species or system avian (chicken). The procedure: Measurement of R.CoA Binding by EPR. Conventional X-band EPR spectra were recorded using a Varian Century-Line 9-GHz spectrometer. The samples contained variable concentrations of HMG-CoA synthase sites (0-930 μM) in 50 mM sodium phosphate buffer, pH 7.0, and 50 or 150 μM R.CoA. R.CoA bound to HMG-CoA synthase was calculated by comparing the amplitudes of high, center, or low-field lines of sample spectra to the corresponding lines observed with a solution containing an equal concentration of R.CoA in buffer. The data were analyzed (Miziorko et al., (1979) Biochemistry 18, 399-403) by Scatchard plot using linear regression analysis. The spectra were recorded at ambient temperature with a modulation amplitude of 1 G, modulation frequency of 100 KHz and microwave power 5 mW. Field sweep was 100 G and time constant was 0.5 sec. The EPR spectrum of bound R.CoA was obtained at 5 G modulation amplitude and variable gain. Rotational correlation time of the bound spin label was determined using a spectral simulation algorithm (Freed, (1976) Spin Labeling: Theory and Applications (L. Berliner, ed.) 1, 53-132; Schneider, et al. (1989) Biological Magnetic Resonance 8, 1-76).

Series [2] concerns native avian liver HMG-CoA synthase (liver enzyme). The following applies: read-out: Km AcCoA (Hydrolase Rxn.), absence of acetoacetyl-CoA; cited from earlier work.
For series [3] the test system is unchanged. The following applies: read-out: Km AcCoA (Overall Rxn.), apparent value, in presence of 20 μM acetoacetylCoA; cited from earlier work.
Substrate in series [4]: CC(=O)SCCNC(=O)CCNC(=O)[C@H](O)C(C)(C)COP(=O)(O)OP(=O)(O)OC[C@H]1O[C@@H](n2cnc3c(N)ncnc32)[C@H](O)[C@@H]1OP(=O)(O)O
Briefly: purified protein, by the assay type. The following applies: other: recombinant enzyme.

Like-named read-outs stand apart in the source and are kept apart here.

Consider `CC(C)(COP(=O)(O)OP(=O)(O)OC[C@H]1O[C@@H](n2cnc3c(N)ncnc32)[C@H](O)[C@@H]1OP(=O)(O)O)[C@@H](O)C(=O)NCCC(=O)NCCSC(=O)C1CC(C)(C)N([O])C1(C)C` (some centres unmarked) [R.CoA], for which the Kd in series [1] turned out to be 102 µM.

Take `CC(=O)SCCNC(=O)CCNC(=O)[C@H](O)C(C)(C)COP(=O)(O)OP(=O)(O)OC[C@H]1O[C@@H](n2cnc3c(N)ncnc32)[C@H](O)[C@@H]1OP(=O)(O)O` [AcCoA, acetyl-CoA]: the results for the Km in series [2] and in series [3] were 14 µM and 300 µM, respectively.

B1: recombinant avian cytosolic HMG-CoA synthase (wild type, alanine replacing proline at residue 2; SEQ ID NO:2) expressed in E. coli (Gallus gallus; P2A) (protein)
chain: T1 sequence (P23228 2-522 P2A limits assumed)
Take B1: the Km was 12 µM in series [4] (absence of acetoacetyl-CoA, pH 8.0, 30° C., pH 8.0) and 270 µM in series [4] (apparent value, in presence of 20 μM acetoacetylCoA, 30° C., pH 8.2, pH 8.2).

Usually Kd stands for the constant that tells how readily two partners part at equilibrium. Broadly, the Km is the concentration of substrate that gives half-maximal velocity.

Values taken from patent US5668001A, “3-hydroxy-3-methyl-glutaryl-coa synthase preparation with improved stability” (MCW Research Foundation, Inc., priority 1994, dated 1997).
